Measured values: patent US10597388B2, “Pyridazinone herbicides” (FMC CORPORATION, priority 2014, dated 2020)

Tests used:
Test in all cases: Test D controlled growth environment herbicide test, pre- and postemergence
Type in all cases: in vivo
[1] = tested on: blackgrass (Alopecurus myosuroides)
Summary of the method: (§1)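 Rating is visual, 0–100 scale (100 = complete control), made against untreated plants 14–21 d after treatment in controlled growth conditions. Postemergence sprays went onto 1- to 4-leaf plants in peat medium; preemergence sprays onto silt loam after sowing; formulation included a surfactant.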

[2] = tested on: bromegrass, downy (downy bromegrass, Bromus tectorum)
Summary of the method: as §1

[3] = tested on: buckwheat, wild (wild buckwheat, Polygonum convolvulus)
Summary of the method: as §1

[4] = tested on: chamomile (scentless chamomile, Matricaria inodora)
Summary of the method: as §1

[5] = tested on: deadnettle (henbit deadnettle, Lamium amplexicaule)
Summary of the method: as §1

[6] = tested on: foxtail, green (green foxtail, Setaria viridis)
Summary of the method: as §1

[7] = tested on: galium (catchweed bedstraw, Galium aparine)
Summary of the method: as §1

kochia (Kochia scoparia) = tested on: kochia (Kochia scoparia)
Summary of the method: as §1

[8] = tested on: mustard, wild (wild mustard, Sinapis arvensis)
Summary of the method: as §1

[9] = tested on: oilseed rape (Brassica napus)
Summary of the method: as §1

[10] = tested on: pigweed (Amaranthus retroflexus)
Summary of the method: as §1

[11] = tested on: ryegrass, Italian (Italian ryegrass, Lolium multiflorum)
Summary of the method: as §1

[12] = tested on: speedwell (bird's-eye speedwell, Veronica persica)
Summary of the method: as §1

[13] = tested on: windgrass (Apera spica-venti)
Summary of the method: as §1

[14] = Postemergence, 31 g ai/ha, scale 0 to 100 (0 no effect, 100 complete control)
[15] = Postemergence, 125 g ai/ha, visual rating on scale 0 (no effect) to 100 (complete control), 14 to 21 d
[16] = Postemergence, 250 g ai/ha, scale 0 to 100 (0 no effect, 100 complete control)
[17] = Preemergence, 62 g ai/ha, scale 0 to 100 (0 no effect, 100 complete control)
[18] = Preemergence, 125 g ai/ha, scale 0 to 100 (0 no effect, 100 complete control)
[19] = Preemergence, 250 g ai/ha, scale 0 to 100, 0 no effect, 100 complete control
[20] = postemergence, 62 g ai/ha, scale 0 to 100, 0 no effect, 100 complete control

**Q.** What does the source list for `CCCC(=O)Oc1c(C)nn(C)c(=O)c1-c1c(C)sc2ccc(C)cc12` [Compound 105]?
**A.** Blackgrass plant response rating [1, 14]: 15; Plant response rating, Blackgrass [1, 15]: 65; Plant response rating, Blackgrass [1, 16]: 65; Plant response rating (scale of 0 to 100), Blackgrass ([1]; Preemergence, 31 g ai/ha): 35; Plant response rating, Blackgrass [1, 17]: 50; Plant response rating, Blackgrass [1, 18]: 60; Plant response rating, Blackgrass [1, 19]: 75; Plant response rating, Blackgrass [1, 20]: 25; Bromegrass, Downy plant response rating [2, 14]: 10; Plant response rating, Bromegrass, Downy [2, 15]: 25; Plant response rating, Bromegrass, Downy [2, 16]: 65; Plant response rating (scale of 0 to 100), Bromegrass, Downy ([2]; Preemergence, 31 g ai/ha): 35; Plant response rating, Bromegrass, Downy [2, 17]: 65; Plant response rating, Bromegrass, Downy [2, 18]: 70; Plant response rating, Bromegrass, Downy [2, 19]: 75; Plant response rating, Bromegrass, Downy [2, 20]: 20; Buckwheat, Wild plant response rating [3, 14]: 65; Plant response rating, Buckwheat, Wild [3, 15]: 100; Plant response rating, Buckwheat, Wild [3, 16]: 100; Plant response rating (scale of 0 to 100), Buckwheat, Wild ([3]; Preemergence, 31 g ai/ha): 15; Plant response rating, Buckwheat, Wild [3, 17]: 5; Plant response rating, Buckwheat, Wild [3, 18]: 5; Plant response rating, Buckwheat, Wild [3, 19]: 25; Plant response rating, Buckwheat, Wild [3, 20]: 95; Chamomile plant response rating [4, 14]: 80; Plant response rating, Chamomile [4, 15]: 100; Plant response rating, Chamomile [4, 16]: 100; Plant response rating, Chamomile [4, 20]: 85; Deadnettle plant response rating [5, 14]: 10; Plant response rating, Deadnettle [5, 15]: 20; Plant response rating, Deadnettle [5, 16]: 30; Plant response rating (scale of 0 to 100), Deadnettle ([5]; Preemergence, 62 g ai/ha): 10; Plant response rating, Deadnettle [5, 18]: 15; Plant response rating, Deadnettle [5, 19]: 65; Plant response rating, Deadnettle [5, 20]: 10; Foxtail, Green plant response rating [6, 14]: 70; Plant response rating, Foxtail, Green [6, 15]: 75; Plant response rating, Foxtail, Green [6, 16]: 80; Plant response rating (scale of 0 to 100), Foxtail, Green ([6]; Preemergence, 31 g ai/ha): 45; Plant response rating (scale of 0 to 100), Foxtail, Green ([6]; Preemergence, 62 g ai/ha): 55; Plant response rating, Foxtail, Green [6, 18]: 65; Plant response rating, Foxtail, Green [6, 19]: 100; Plant response rating, Foxtail, Green [6, 20]: 70; Galium plant response rating [7, 14]: 85; Plant response rating, Galium [7, 15]: 95; Plant response rating, Galium [7, 16]: 100; Plant response rating (scale of 0 to 100), Galium ([7]; Preemergence, 31 g ai/ha): 80; Plant response rating (scale of 0 to 100), Galium ([7]; Preemergence, 62 g ai/ha): 95; Plant response rating, Galium [7, 18]: 85; Plant response rating, Galium [7, 19]: 100; Plant response rating, Galium [7, 20]: 95; Kochia plant response rating (kochia (Kochia scoparia); [14]): 85; Plant response rating, Kochia (kochia (Kochia scoparia); [15]): 95; Plant response rating, Kochia (kochia (Kochia scoparia); [16]): 100; Plant response rating (scale of 0 to 100), Kochia (kochia (Kochia scoparia); Preemergence, 31 g ai/ha): 10; Plant response rating (scale of 0 to 100), Kochia (kochia (Kochia scoparia); Preemergence, 62 g ai/ha): 50; Plant response rating, Kochia (kochia (Kochia scoparia); [18]): 95; Plant response rating, Kochia (kochia (Kochia scoparia); [19]): 100; Plant response rating, Kochia (kochia (Kochia scoparia); [20]): 95; Mustard, Wild plant response rating [8, 14]: 5; Plant response rating, Mustard, Wild [8, 15]: 40; Plant response rating, Mustard, Wild [8, 16]: 75; Plant response rating (scale of 0 to 100), Mustard, Wild ([8]; Preemergence, 31 g ai/ha): 10; Plant response rating (scale of 0 to 100), Mustard, Wild ([8]; Preemergence, 62 g ai/ha): 0; Plant response rating, Mustard, Wild [8, 18]: 0; Plant response rating, Mustard, Wild [8, 19]: 20; Plant response rating, Mustard, Wild [8, 20]: 25; Oilseed Rape plant response rating [9, 14]: 0; Plant response rating, Oilseed Rape [9, 15]: 25; Plant response rating, Oilseed Rape [9, 16]: 60; Plant response rating (scale of 0 to 100), Oilseed Rape ([9]; Preemergence, 31 g ai/ha): 55; Plant response rating (scale of 0 to 100), Oilseed Rape ([9]; Preemergence, 62 g ai/ha): 60; Plant response rating, Oilseed Rape [9, 18]: 50; Plant response rating, Oilseed Rape [9, 19]: 50; Plant response rating, Oilseed Rape [9, 20]: 15; Pigweed plant response rating [10, 14]: 85; Plant response rating, Pigweed [10, 15]: 100; Plant response rating, Pigweed [10, 16]: 100; Plant response rating (scale of 0 to 100), Pigweed ([10]; Preemergence, 31 g ai/ha): 100; Plant response rating (scale of 0 to 100), Pigweed ([10]; Preemergence, 62 g ai/ha): 100; Plant response rating, Pigweed [10, 18]: 100; Plant response rating, Pigweed [10, 19]: 100; Plant response rating, Pigweed [10, 20]: 100; Ryegrass, Italian plant response rating [11, 14]: 75; Plant response rating, Ryegrass, Italian [11, 15]: 90; Plant response rating, Ryegrass, Italian [11, 16]: 95; Plant response rating (scale of 0 to 100), Ryegrass, Italian ([11]; Preemergence, 31 g ai/ha): 85; Plant response rating (scale of 0 to 100), Ryegrass, Italian ([11]; Preemergence, 62 g ai/ha): 90; Plant response rating, Ryegrass, Italian [11, 18]: 95; Plant response rating, Ryegrass, Italian [11, 19]: 98; Plant response rating, Ryegrass, Italian [11, 20]: 85; Speedwell plant response rating [12, 14]: 45; Plant response rating, Speedwell [12, 15]: 65; Plant response rating, Speedwell [12, 16]: 75; Plant response rating, Speedwell [12, 20]: 50; Windgrass plant response rating [13, 14]: 60; Plant response rating, Windgrass [13, 15]: 80; Plant response rating, Windgrass [13, 16]: 85; Plant response rating (scale of 0 to 100), Windgrass ([13]; Preemergence, 31 g ai/ha): 75; Plant response rating (scale of 0 to 100), Windgrass ([13]; Preemergence, 62 g ai/ha): 80; Plant response rating, Windgrass [13, 18]: 80; Plant response rating, Windgrass [13, 19]: 95; Plant response rating, Windgrass [13, 20]: 70
